The data set can be described thus: Measurement of dissolution enthalpy by solution calorimetry (TAM IV Microcalorimeter), relative temperature as a function of time. The data set is classed as physicochemical. The settings on record: 250 mg sample in 100 mL water, 25° C., stirring at 500 rpm, ampoule broken; FIGS. 1-4. The protocol: The TAM IV Microcalorimeter was used to detect temperature changes of solutions with an accuracy of 0.001 K, which evolves from the dissolution enthalpy of the substances being tested.
Different formulations of amino acids are placed in an ampoule, surrounded by aqueous solvent. After the ampoule has been ruptured, the temperature change is analyzed.
Experimental Setup: • 250 mg of each sample were filled into a 1 mL crushing ampoule at ambient conditions without any pre-treatment. • The ampoules were closed with a silicone stopper and wax and inserted into the stirrer of the solution calorimeter and immersed into 100 mL water. • The system was then equilibrated at 25° C. while stirring at 500 rpm before the ampoule was broken. • Calibrations with a heat pulse of 2.5 J at a power of 250 mW were performed before and after the break. • For data evaluation, the slope of the baseline before breaking the sample was set to zero by differentiation of the curve, shift to zero and re-integration.
For spray dried multicomponent amino acids the enthalpy of solution measurement have been carried out on a special ampule calorimeter equipped with an isothermal shell. In the course of the calorimetry measurement, the stability of the temperature-control system was maintained constant to within 10^−4K. All experiments were performed three times and were reproducible within 5%.

For `CC(C)C[C@H](N)C(=O)O` [L-leucine], the “Relative temperature as a function of time on dissolution (enthalpy of solution)” value is reported as “steady decrease in the temperature”.
The entry for `O=C(O)[C@@H]1CCCN1` [L-proline] is “strong increase in the temperature is observed followed by a continous decrease”.
